In patent publication US12636386B2, “Compositions and methods for the treatment and imaging of cancer” (BOARD OF REGENTS OF THE UNIVERSITY OF NEBRASKA, priority 2021, dated 2026):
Values joined by “and” are separate entries in the source; they are usually repeats but may differ in a detail not shown here. Equal entries are not always repeated. Where two headings read alike, the source gives them in different places. Blank lines part the entries; values can stand above or below the compound they belong to.

Legend:
[1] = from Kortylewicz, et al. (2020) J Med Chem; cited from earlier work
[2] = from Kortylewicz, et al. (2020) J Med Chem; cited from earlier work; remark: listed apart in the source
[3] = Ex vivo stability in human serum; type: in vitro ADME; settings: 37° C., 5% CO2; average±SE; monoexponential fit of percent intact compound
Experimental: (§1) Aliquots of GPAID (1.4-2.3 MBq) in 120 μl of 25% EtOH/PB (10-mM, pH 6.1) were added to 6.88-ml phosphate-buffered saline (PBS), cell culture media, or serum (mouse, pig, or human). Mixtures were briefly vortexed and incubated at 37° C. and 5% CO2. At selected times, 1 ml of GPAID incubation mixture was withdrawn, 1-ml MeCN was added, and the mixture was vortexed and centrifuged at 2000 rpm for 15 minutes at 4° C. The supernatant was removed, and the radioactivity measured. Supernatant (250-500 μl) were acidified to pH˜6 with 0.05-N TFA (2-8 μl). The excess of MeCN was evaporated with a stream of nitrogen and 100 μl of water added. This mixture was passed through a 0.22-μm filter and 100 μl (111-185 kBq) injected onto the HPLC system. HPLC analysis of extracts proceeded on the ACE C18 100-A column ([…], 4.6×250 mm) eluted at 0.8 ml/minute with a linear gradient of MeCN from 10% to 95% over 45 minutes and kept at 95% MeCN for 15 minutes the radioactivity detection (Bioscan). Both solvents contained 0.07% TFA (v/v).
(§2) Ex vivo stability of GPAID was assessed in PBS, cell culture medium without NB cells, and in the presence of NB cells and in human, mouse, and porcine sera after various times of incubation. […] Half-lives in sera were calculated from the area under the peak of the intact GPAID recovered from the incubation mixtures plotted as a function of the incubation time. […]

[4] = Ex vivo stability in pig serum; type: in vitro ADME; settings: 37° C., 5% CO2; average±SE; monoexponential fit of percent intact compound
Experimental: as §1, §2

[5] = Ex vivo stability in mouse serum; type: in vitro ADME; settings: mouse serum contains esterases including carboxylesterase
Experimental: as §1, §2

Stability in PBS = type: physicochemical; settings: 37° C.
Experimental: as §1, §2

[6] = Stability in cell culture medium without NB cells; type: physicochemical; settings: 5% CO2
Experimental: as §1, §2

SK-N-SH cells [7] = assay: Radioactive species in medium recovered from NB cell monolayers cultured with GPAID; type: cell-based, human
Experimental: as §1
Ex vivo stability of GPAID was assessed in PBS, cell culture medium without NB cells, and in the presence of NB cells and in human, mouse, and porcine sera after various times of incubation. The analytical details are provided hereinabove. Half-lives in sera were calculated from the area under the peak of the intact GPAID recovered from the incubation mixtures plotted as a function of the incubation time. The degradation curves followed the first-order kinetics. Data were fitted into the monoexponential equations with the intercept set at 100% (FIG. 2A). In a typical experiment, a final concentration of GPAID in serum approximated radioactivity levels of ^131IMIBG in blood of children receiving therapeutic doses (Pandit-Taskar, et al. (2017) Clin Nucl Med., 42(10):741-748; Matthay, et al. (1998) J Clin Oncol., 16(1):229-236). 0

[8] = system: BE(2)-C and SK-N-SH cells; assay: Time- and concentration-dependent cellular uptake, statements covering both NB cell lines; type: cell-based, human
Text: (§3) Two human NB cell lines SK-N-SH (SK) and BE(2)-C(BE) and one murine NB cell line N1E-115 (N1E) were purchased from the American Type Culture Collection (ATCC; Manassas, VA). Cells were maintained according to the vendor's instructions. For animal studies, cells were harvested when ˜70% confluent and cryopreserved until ready to use.
(§4) Established protocols were used in these experiment (Kortylewicz, et al. (2020) J Med Chem., 63:2051-2073; Baranowska-Kortylewicz, et al. (1994) J Label Compd Radiopharm., 34(6):513-521; Kortylewicz, et al. (2009) J Med Chem., 52(16):5124-5143). Briefly, NB cells plated in TPP T25 flasks (Midwest Scientific, Valley Park, MO) at 5×10^5 cells per flask were maintained in culture for 48-72 hours, depending on the doubling time of the cell line, until 60%-70% confluent. For time-dependent uptake studies, GPAID was added to the growth medium to produce the average concentrations of 28.2±5.5, 27.6±2.8, and 30.7±1.0 kBq/ml in SK, BE, and N1E cells, respectively. Radioactive medium was removed after 1, 5, 16, 24, and 48 hours in culture (n=4 per time). Cells were harvested by scraping and enumerated using Cellometer (Nexcelom Bioscience, Lawrence, MA). Cell suspensions were centrifuged for 10 minutes at 1500 rpm; cell pellets resuspended in ice-cold PBS, transferred into microfuge tubes, and centrifuged at 500×g for 10 minutes. The radioactive content of cell pellets was measured in a gamma counter. The cellular uptake was calculated in terms of MBq per cell. For subcellular fractionation experiments, NB cells grown as monolayers were treated with GPAID and processed as described (Kortylewicz, et al. (2020) J Med Chem., 63:2051-2073). In the concentration-dependent uptake experiments, GPAID in the appropriate medium at several concentrations was added to the cell monolayers. Cells were processed after 1-hour incubation. Radioactive medium was removed, and monolayers were washed once with full nonradioactive medium and PBS. Cells were harvested and enumerated, and their radioactive content was measured.

BE(2)-C cells [9] = assay: Subcellular distribution in BE(2)-C cells; type: cell-based, human
Text: as §3, §4

SK-N-SH cells [10] = assay: Subcellular distribution in SK-N-SH cells; type: cell-based, human
Text: as §3, §4

N1E-115 cells = assay: Subcellular distribution in N1E-115 cells; type: cell-based, murine
Text: as §3, §4

BE(2)-C cells [11] = assay: Clonogenic survival of BE(2)-C cells; type: cell-based, human; settings: on average
Experimental: (§5) Cells were plated into T25 flasks and allowed to grow until ˜60%-70% confluent. Fresh medium (3 ml) was added to one set of flasks (n=4 per time). To the second set of flasks (n=4 per time), fresh medium (3 ml) containing 100-μM nonradioactive MIBG was added. All cells were returned to the incubator for 30 minutes, after which time 3 ml of medium containing GPAID (51.5±1.4 kBq/ml) was added to produce the final concentration of 50-μM MIBG and 25.8±0.7 kBq/ml GPAID. Cells were returned to the incubator for additional 1, 24, and 48 hours. At designated times, media were removed, monolayer washed 1× with full medium, 2× with PBS, and SK and BE cells were harvested with the nonenzymatic cell dissociation solution (Sigma-Aldrich). N1E cells were harvested by flushing the monolayer with spent media. Cell numbers were determined, and their radioactive content measured in a gamma counter. The whole cell uptake was calculated on terms of MBq per cells. The clonogenic survival was calculated as the ratio of the number of colonies produced by cells treated with nonradioactive MIBG and GPAID to the number of colonies produced by cells treated with GPAID only. The cell survival at 24 hours was expressed as the ratio of viable cells in treatment groups to cells in untreated controls.

NB cells = assay: Survival of NB cells, trypan blue exclusion method followed by clonogenic assay; type: cell-based, human; settings: trypan blue exclusion and clonogenic assay; 25.8±0.7 kBq/ml
Experimental: as §5

N1E-115 tumors = assay: Therapy of mice bearing IP N1E allografts; type: in vivo; settings: single IP dose 3.64±0.10 MBq per mouse 1 week after implant; 14 days after treatment; NT controls 2.61±0.57 g; p=0.03
Experimental: Research involving animals was performed in accordance with the UNMC institutional guidelines and protocols as defined by the Institutional Animal Care and Use Committee for US institutions. Athymic NCr nude mice (spontaneous mutant) were purchased from Taconic (Rensselaer, NY). The intraperitoneal route […] was used for the tumor implant and dose administration. All experiments were conducted in mice of both genders 4 to 8 weeks old.
Four-week-old NCr nu/nu mice, male (n=10) and female (n=10), received IP implant of 5×10^6 N1E cells. One week later, mice were randomly assigned via a lottery to either control or treatment group. Control mice were given IP injection of the vehicle. Mice in the therapy group received a bolus IP injection of 3.64±0.10 MBq GPAID per mouse (˜145 MBq/kg body weight [bw]). Triplicate aliquots of the injected dose (ID) were counted in a gamma counter. Syringes containing the dose and syringes after the injection were weighed on the analytical balance to determine ID. Whole body radioactivity was also measured immediately after each injection to confirm ID. Necropsy was performed at the termination of the experiment. Blood was collected via cardiac puncture. […]
All variables are expressed as average±standard deviation or ±standard error. The cellular uptake, cell survival, and other biological properties were analyzed using two-sided Student's t test. […]

[12] = Hemoglobin and hematocrit in treated tumor-bearing mice; type: in vivo; settings: mice treated with 3.64±0.10 MBq GPAID IP; termination necropsy
Text: (§6) Four-week-old NCr nu/nu mice, male (n=10) and female (n=10), received IP implant of 5×10^6 N1E cells. One week later, mice were randomly assigned via a lottery to either control or treatment group. Control mice were given IP injection of the vehicle. Mice in the therapy group received a bolus IP injection of 3.64±0.10 MBq GPAID per mouse (˜145 MBq/kg body weight [bw]). Triplicate aliquots of the injected dose (ID) were counted in a gamma counter. Syringes containing the dose and syringes after the injection were weighed on the analytical balance to determine ID. Whole body radioactivity was also measured immediately after each injection to confirm ID. Necropsy was performed at the termination of the experiment. Blood was collected via cardiac puncture. Aliquots were reserved for determination of hemoglobin (Hb; HemoCue, Ängelholm, Sweden) and hematocrit (Hct).

[13] = Biodistribution at necropsy 14 days after the dose; type: in vivo, mice; settings: necropsy 14 days after the IP dose
Text: as §6

[14] = monoprotonated cation at physiological pH; cited from earlier work
[15] = molecular target: T1, norepinephrine transporter (Homo sapiens, UniProt P23975); assay: Competitive uptake assay with nonradioactive MIBG in SK-N-SH cells; type: cell-based; settings: 50 μM nonradioactive MIBG; 25.8±0.7 kBq/ml GPAID; exponentially growing SK cell monolayers
T1 construct: These cells represent a well-established robust model for the NET-specific MIBG uptake; endogenous in cells; host or cells: SK (SK-N-SH) and BE (BE(2)-C) neuroblastoma cells, exponentially growing monolayers
Experimental: as §5

[16] = molecular target: T1, norepinephrine transporter; assay: Competitive uptake assay with nonradioactive MIBG in BE(2)-C cells; type: cell-based; settings: 50 μM nonradioactive MIBG; 25.8±0.7 kBq/ml GPAID; exponentially growing BE cell monolayers
Experimental: as §5

NET = NET (Homo sapiens, UniProt P23975); settings: Smets, et al. (1989) Cancer Res.; cited from earlier work
[17] = incubated with exponentially growing NB cell monolayers for 24 hours
[18] = 1 hour with GPAID, washed, additional 4 hours in nonradioactive medium
[19] = N1E cells, 24-hour incubation, average 29±3 kBq/ml

Sequence of NET (P23975 whole entry): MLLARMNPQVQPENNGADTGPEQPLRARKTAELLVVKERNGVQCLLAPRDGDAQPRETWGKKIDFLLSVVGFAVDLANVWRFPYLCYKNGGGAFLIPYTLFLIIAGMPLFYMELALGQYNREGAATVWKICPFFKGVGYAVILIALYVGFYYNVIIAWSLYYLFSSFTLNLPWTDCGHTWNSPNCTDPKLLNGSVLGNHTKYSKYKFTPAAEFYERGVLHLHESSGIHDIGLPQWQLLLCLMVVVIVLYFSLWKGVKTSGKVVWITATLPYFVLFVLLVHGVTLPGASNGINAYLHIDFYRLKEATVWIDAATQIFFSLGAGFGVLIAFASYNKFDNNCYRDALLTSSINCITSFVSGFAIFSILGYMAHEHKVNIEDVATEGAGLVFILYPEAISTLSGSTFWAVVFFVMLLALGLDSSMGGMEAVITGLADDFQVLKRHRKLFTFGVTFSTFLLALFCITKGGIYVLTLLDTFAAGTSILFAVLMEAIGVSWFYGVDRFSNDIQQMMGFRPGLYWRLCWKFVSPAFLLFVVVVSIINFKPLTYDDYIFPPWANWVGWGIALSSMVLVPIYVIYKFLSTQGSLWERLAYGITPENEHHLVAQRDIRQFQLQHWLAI
T1 sequence (P23975 whole entry): as above

Compound: N=C(N)NCCCCCC(=O)O[C@H]1C[C@H](n2cc([125I])c(=O)[nH]c2=O)O[C@@H]1CO [IDG, 5-[^125I]iodo-3′-O-(ε-guanidinohexanoyl)-2′-deoxyuridine]
Half-life in human serum [1]: 2.3 ± 0.1 h and ~2.3 h
Half-life in pig serum [2]: 3.6 ± 0.1 h

Half-life in human serum [3]: 7.9 ± 0.7 h
Half-life in pig serum [4]: 5.8 ± 2.1 h
Stability in mouse serum [5]: not stable
Stability in PBS (Stability in PBS): stable
Stability in cell culture in the absence of NB cells ([6]; 37° C.): stable
Intact GPAID remaining in cell culture medium without cells ([6]; 24 hours at 37° C.): > 90%
Total radioactivity in the form of either free ^125I or ^125I-uracil in medium (SK-N-SH cells [7]; SK-N-SH cells cultured with GPAID for 24 hours at 37° C., 5% CO2 (FIG. 2D)): ~30%
Intact GPAID in recovered media (SK-N-SH cells [7]; [17]): ~42%
^125IUdR in recovered media (SK-N-SH cells [7]; [17]): ~28%
Compound: (R)-(−)-5-[^125I]Iodo-3′-O-[2-(ε-guanidinohexanoyl)-2-phenylacetyl]-2′-deoxyuridine [GPAID]
^125I disintegrations accumulated in 24 hours ([8]; 1-hour exposure, all tested concentrations >0.015 MBq/ml): > 20 disintegrations per cell
Dependence of cellular radioactivity on extracellular concentration ([8]; 1-hour treatment, entire tested range up to 200 kBq/ml (2.45×10^−9 M)): directly proportional to the extracellular concentration of GPAID
Cellular uptake in BE cells compared with SK cells ([8]; 1 hour incubation, washed and processed immediately): nearly identical
Total cellular radioactivity associated with DNA (BE(2)-C cells [9]; [18]): > 95%
Total recovered ^125I in DNA (BE(2)-C cells [9]; after 1 hour with GPAID): 32%
^125I associated with DNA (BE(2)-C cells [9]; at 24 hours): practically all
Total cellular radioactivity associated with DNA (SK-N-SH cells [10]; [18]): ~75%
Total recovered ^125I in DNA (SK-N-SH cells [10]; after 1 hour with GPAID): ~22%
^125I associated with DNA (SK-N-SH cells [10]; at 24 hours): practically all
^125I recovered in DNA (DNA pellet) (N1E-115 cells; [19]): > 99%
^125I activity in the nuclei bound to DNA (N1E-115 cells; N1E-115 cells, 24-hour treatment, 29±3 kBq/ml (FIG. 3E)): ~100%
BE cells that survived, retained reproductive integrity and formed colonies (BE(2)-C cells [11]; GPAID extracellular concentration 25.8±0.7 kBq/ml): 32%
Survival of NB cells treated with GPAID alone (NB cells): significant reduction in survival
Average tumor weight at necropsy (N1E-115 tumors): 0.88 ± 0.54 g
HCt level [12]: within the normal range values
Hb level [12]: within the normal range values
Residual level in the adrenal glands [13]: 0.034±0.016 % ID/g
Radioactivity retention in tissues ([13]; all tissues): only marginal radioactivity retention
pKa [14]: ~12

Compound: N=C(N)NCc1cccc([125I])c1 [^125IMIBG]
Recovery in the cytoplasmic fraction (N1E-115 cells; N1E cells, 24-hour incubation): majority
^125I recovered in DNA (DNA pellet) (N1E-115 cells; [19]): 0%
^125I retrieved in the soluble nuclear fraction (N1E-115 cells; [19]): ~19%

Compound: N=C(N)NCc1cccc([131I])c1 [MIBG, metaiodobenzylguanidine]
Inhibition of GPAID uptake [15]: 70%
Inhibition of GPAID uptake [16]: 85%
Colonies from cells exposed to nonradioactive MIBG alongside GPAID compared with GPAID alone (BE(2)-C cells [11]; 50-μM MIBG, 25.8±0.7 kBq/ml GPAID): 3 ×
Concentration at which uptake begins to saturate (NET): > 500 nM
Concentration up to which uptake is linear (NET): ~100 nM
